Read-outs that look alike come from different tables or passages of the source.

Data set [1] concerns primary human fetal RPE monolayers. The data set is described as follows: PAX6 / RPE differentiation marker expression of EdU+ RPE cells after scratch. It is filed as cell-based. As to the method: (§1) Ninety-six hours after the scratch, cells were immediately fixed with 4% paraformaldehyde (PFA) in phosphate-buffered saline (PBS) for 15 minutes at room temperature (RT). Cells were washed three times with PBS in between each step. Following fixation, cells were blocked and permeabilized with 3% bovine serum albumin (BSA) and 0.1% Triton X-100 in PBS for 2 hours at RT. Cells were then incubated with an EdU reaction cocktail according to the manufacturer's instructions for 30 minutes at RT, protected from light. Then, cells were incubated overnight with primary antibodies diluted in 3% BSA in PBS. The following morning, cells were incubated with secondary antibodies diluted in 3% BSA in PBS for 2 hours at RT, protected from light. Cells were counterstained with DAPI and then washed. A list of reagents and dilutions used can be found in Table 1.
(§2) Within each region, cell proliferation was quantified by dividing EdU/DAPI doubly positive cells by the total number of DAPI+ cells, expressed as a percentage. PAX6 expression was quantified as the ratio of PAX6+ nuclei among EdU/DAPI doubly positive nuclei, also expressed as a percentage.
In order to characterize RPE cell fate in response to Lats kinase inhibition in the context of injury, cells were stained with PAX6 and RPE65.

In data set [2] the test system is RPE monolayers. Briefly: Toxic effects in vitro. The data set is classed as cell-based, human.
Data set [3] deals with primary human fetal RPE monolayers. Briefly: In vitro cell proliferation (EdU+ cells) in RPE monolayers. The data set is classed as cell-based. The note with it: for percentage of EdU+ cells / EdU+ cells compared to DMSO in the absence of injury (in words): 96 hours; for percentage of EdU+ cells: 1 μM, mean±SE; for EdU+ cells compared to DMSO in the absence of injury (in words): uninjured monolayers. As to the method: Following 72-hour acclimation period, RPE monolayers were then subjected to a controlled horizontal scratch using the WoundMaker Tool™ (Essen BioScience Ltd., Welwyn Garden City, United Kingdom) according to the protocol provided by the manufacturer. Wells were subsequently washed 1-2 times with their respective media in order to remove cell debris. Cells were then treated with either 1 μM DMSO (as control) or 1 μM TDI-011536 dissolved in either FBS-containing or FBS-free media. To label and track proliferating cells, cells were incubated with 10 μM 5-Ethynyl-2′-deoxyuridine (EdU) for 96 hours.
as §1
Regions measuring 800 μm^2 at various distances from the scratch within each well were analyzed. In uninjured wells, three regions were randomly selected within each well. In scratched wells, three regions were centered within the original scratch area (scratch region), which was determined by overlaying the brightfield image taken immediately post-scratch over the fluorescence images 96 hours post-scratch. Another three regions were selected immediately adjacent to the original scratch area but not within it (proximal region). Finally, three additional regions at least 800 μm from the original scratch area were selected (distal region). Apart from scratch regions, only regions that were intact and confluent immediately post-scratch were analyzed. Regions with significant cell loss or those that were otherwise not confluent following the scratch were excluded from analysis.
as §2
To assess the effect of Lats kinase inhibition on cell proliferation in the absence of injury, RPE monolayers were incubated with EdU for 96 hours with the addition of LKI or DMSO. Cell proliferation was quantified as the percentage of EdU+ cells within 3 randomly selected regions within each well.
To assess whether Lats kinase inhibition accelerates wound healing via RPE proliferation in vitro, and the mechanism of wound closure with Lats kinase inhibition, RPE monolayers were incubated with EdU following the initial scratch and remained exposed to EdU for 96 hours. At 96 hours, cells were fixed and stained for various cell markers. The percentage of EdU+ cells within scratch, proximal, and distal regions was recorded (FIG. 2A).

Data set [4] can be described thus: Solubility of the drug. It is filed as physicochemical.
[5] abbreviates: proximal regions, FBS-free media.
[6] abbreviates: scratch regions, FBS-free media.

As to `O=C(/N=c1\scc(CO)n1Cc1ccccc1)c1c[nH]c2ncccc12` [TDI-011536], in data set [1] (96 hours post-scratch), the “EdU/PAX6 doubly positive cells in the scratch site, LKI vs control (in words)” value is given as “no significant difference”. Besides, in data set [1] (96 hours post-scratch, scratch site), the “EdU+ cells within the original scratch site that expressed PAX6” value came out at 99.67±1.46%. In addition, the “expression of early and late markers of RPE differentiation (in words)” value in data set [1] (in vitro injury model, after exposure) was “nearly all RPE cells expressed both early and late markers of RPE differentiation”. Besides, the “toxic effects in vitro” value was “No toxic effects” in data set [2] and “no toxic effects” in data set [2] (listed as LKI). Also, the “percentage of EdU+ cells in monolayers not subjected to injury (in words)” value in data set [3] (discussion, media not stated) is “only a modest increase”. Also, the “percentage of EdU+ cells” value in data set [3] (distal regions, FBS-free media) turned out to be 3.20±0.48%; in data set [3] (setting [5]), 10.25±1.30%; in data set [3] (setting [6]), 40.11±2.07%. In addition, the “difference in percentage of EdU+ cells, LKI vs control” value turned out to be 0.91±0.62% in data set [3] (distal regions, FBS-free media); 7.36±1.38% in data set [3] (setting [5]); 6.88±2.80% in data set [3] (setting [6]). Further, the “percentage of EdU+ cells compared to control (in words)” value in data set [3] (distal regions, FBS-free media) is “no significant difference”; in data set [3] (setting [5]), “significantly higher percentage of EdU+ cells”; in data set [3] (setting [6]) it was “significantly higher percentage of EdU+ cells”; in data set [3] (scratched monolayers, FBS-containing media), “significantly higher percentage of EdU+ cells at the scratch site and proximal areas but not distal areas”. The “EdU+ cells compared to DMSO in the absence of injury (in words)” value in data set [3] (FBS-containing media) and in data set [3] (FBS-free media) was “significantly more EdU+ cells” in each case. Also, the “solubility (in words)” value in data set [4] is given as “highly insoluble”.

For the origin of these results see patent US20260284020A1, “LATS KINASE INHIBITOR TO TREAT RETINAL DEGENERATION” (Children's Hospital Los Angeles, priority 2023, published 2026).
